Test results reported in article PMC8198043, “Tetracyclic Thioxanthene Derivatives: Studies on Fluorescence and Antitumor Activity” (Molecules, 2021).

How the values were obtained:
[1] = tested on: myeloid leukemia K562 cell line (doxorubicin-sensitive); set-up: method as in PMID 26771595; conditions: previous results by the group; cited from earlier work
[2] = tested on: myeloid leukemia K562 cell line (doxorubicin-resistant); set-up: method as in PMID 26771595; conditions: previous results by the group; cited from earlier work
[3] = tested on: Human Pulmonary Alveolar Epithelial Cells (HPAEpiC); assay: Cell toxicity in non-tumor cells (GI50); type: cell-based; conditions: mean ± SD of three independent experiments
Procedure: (§1) The antitumor activity of compounds was accessed through the determination of the GI50 by the sulforhodamine B assay (SRB, Sigma-Aldrich). Tumor cells were seeded in 96-well plates (0.05 × 10^6 cells/well) in complete culture medium and incubated at 37 °C for 24 h, allowing cell attachment. Cells were then incubated with two-fold serial dilutions of the test compounds, with concentrations ranging from 0 to 75 μM. Dimethyl sulfoxide-treated cells (DMSO), up to 0.25% concentration, were included as compounds solvent control. Forty-eight hours later, cells were fixed with 50% (m/v) trichloroacetic acid (Merck Millipore, Darmstadt, Germany), washed with distilled water and stained with SRB for 30 min at room temperature. The SRB-stained cells were washed 5 times with 1% (v/v) acetic acid (Merck Millipore) and afterwards dried at RT; SRB complexes were solubilized by adding 10 mM Tris-Base buffer (Sigma-Aldrich) for 30 min. Absorbance was measured at 515 nm in a microplate reader (BioTek Synergy 2, BioTek Instruments Inc., Winooski, VT, USA).The concentration that caused cell growth inhibition of 50% (GI50) was determined based on a dose–response curve obtained for each cell line with each test compound.
The non-tumor Human Pulmonary Alveolar Epithelial Cells (HPAEpiC) were used to assess the degree of selectivity of the compounds, as the ratio of GI50 in non-tumor cells over GI50 in cancer cells. A selectivity index value less than 2.0 indicates the general toxicity of the compound [32].

[4] = Photophysical studies (absorption and emission in DMSO); type: physicochemical; conditions: for λmax: absorption; for λem: emission; for ΦF: fluorescence quantum yield, by comparison with fluorescein (φf = 90%); for log ε: molar absorption coefficient
Procedure: The absorption spectra in dimethyl sulfoxide solutions were obtained on a Shimadzu UV-2501 PC spectrophotometer (1 cm path length quartz cell) and the emission spectra were recorded on a JASCO spectrofluorometer. Molar absorption coefficients were determined using 4 measurements in the concentration range 10^−3–10^−6 mol.L^−1. Fluorescence quantum yields were determined by comparison with fluorescein in 0.1 M NaOH water solution as a fluorescence standard (φf = 90%).

[5] = tested on: A375-C5, MCF-7 and NCI-H460; assay: SRB cell growth inhibition, span over the three tumor cell lines; type: cell-based; conditions: Homo sapiens; A375-C5, MCF-7 and NCI-H460 taken together; read-out: GI50, range over the tested cell lines
Procedure: (§2) To evaluate the biological activity of compounds 11–14, three human tumor cell lines (European Collection of Cell Culture, Salisbury, Wiltshire, UK) were used: A375-C5 (melanoma), MCF-7 (breast adenocarcinoma) and NCI-H460 (non-small cell lung cancer). Cells were grown in RPMI-1640 culture medium (Biochrom, Berlin, Germany) supplemented with 5% heat-inactivated fetal bovine serum (FBS, Biochrom) and maintained in a humidified incubator at 37 °C with 5% CO2 (Hera Cell, Heraeus).
The antitumor activity of compounds was accessed through the determination of the GI50 by the sulforhodamine B assay (SRB, Sigma-Aldrich). Tumor cells were seeded in 96-well plates (0.05 × 10^6 cells/well) in complete culture medium and incubated at 37 °C for 24 h, allowing cell attachment. Cells were then incubated with two-fold serial dilutions of the test compounds, with concentrations ranging from 0 to 75 μM. Dimethyl sulfoxide-treated cells (DMSO), up to 0.25% concentration, were included as compounds solvent control. Forty-eight hours later, cells were fixed with 50% (m/v) trichloroacetic acid (Merck Millipore, Darmstadt, Germany), washed with distilled water and stained with SRB for 30 min at room temperature. […]

[6] = tested on: NCI-H460 (non-small cell lung cancer); assay: SRB cell growth inhibition assay, NCI-H460; type: cell-based, human; conditions: for GI50: Homo sapiens, NCI-H460, SRB assay, continuous exposure for 48 h, mean ± SD, at least three independent experiments, read-out: Antitumor Activity (GI50) NCI-H460; for Selectivity Index NCI-H460: ratio of GI50 in non-tumor HPAEpiC cells over GI50 in NCI-H460
Procedure: as §2, §1

[7] = tested on: MCF-7 (breast adenocarcinoma); assay: SRB cell growth inhibition assay, MCF-7; type: cell-based, human; conditions: for GI50: Homo sapiens, MCF7, SRB assay, continuous exposure for 48 h, mean ± SD, at least three independent experiments, read-out: Antitumor Activity (GI50) MCF-7; for Selectivity Index MCF-7: ratio of GI50 in non-tumor HPAEpiC cells over GI50 in MCF-7
Procedure: as §2, §1

A375-C5 (melanoma) = assay: SRB cell growth inhibition assay, A375-C5; type: cell-based, human; conditions: for GI50: Homo sapiens, A375-C5, SRB assay, continuous exposure for 48 h, mean ± SD, at least three independent experiments, read-out: Antitumor Activity (GI50) A375-C5; for Selectivity Index A375-C5: ratio of GI50 in non-tumor HPAEpiC cells over GI50 in A375-C5
Procedure: as §2, §1

SMILES	GI50 [1] [µM]	GI50 [2] [µM]	GI50 [3] [µM]	Stokes’ Shift [4] [nm]	λmax [4] [nm]	λem [4] [nm]	ΦF [4] [%]	log ε [4]	GI50 [5] [µM]	GI50 [6] [µM]	Selectivity Index NCI-H460 [6]	GI50 [7] [µM]	Selectivity Index MCF-7 [7]	GI50 (A375-C5 (melanoma)) [µM]	Selectivity Index A375-C5 (A375-C5 (melanoma))
CCCOc1ccc(NCCN(CC)CC)c2c(=O)c3ccccc3sc12 [Compound 4]	1.9	1.9	–	–	–	–	–	–	–	–	–	–	–	–	–
CCCOc1ccc2nc(N)nc3c2c1Sc1ccccc1-3 [Compound 11, 6-Propoxythiochromeno[4,3,2-de]quinazolin-2-amine]	–	–	26.8 ± 1.2	92	456	548	29.0	3.67	5 to 7	5.66 ± 0.89	4.73	6.39 ± 0.49	4.19	6.48 ± 0.88	4.13
CCCOc1ccc2ncnc3c2c1Sc1ccccc1-3 [Compound 12, 6-Propoxythiochromeno[4,3,2-de]quinazoline]	–	–	39.28 ± 0.25	89	394	483	50.7	3.72	–	31.2 ± 1.53	1.26	33.8 ± 1.61	1.16	38.8 ± 5.93	1.01
CCCOc1ccc2nc(NCc3ccccc3Cl)nc3c2c1Sc1ccccc1-3 [Compound 13, N-(2-Chlorobenzyl)-6-propoxythiochromeno[4,3,2-de]quinazolin-2-amine]	–	–	128 ± 1.56	91	457	548	31.3	3.72	–	17 ± 3.12	7.54	18.9 ± 1.42	6.79	22.9 ± 3.75	5.59
CCCOc1ccc2c3c(n/c(=N/c4ccccc4C)n2-c2ccccc2C)-c2ccccc2Sc13 [Compound 14, (E)-6-Propoxy-N,3-di-o-tolylthiochromeno[4,3,2-de]quinazolin-2(3H)-imine]	–	–	> 150	80	480	560	<0.1	4.00	8 to 11	10.6 ± 0.31	–	9.04 ± 0.89	–	8.02 ± 3.59	–
COc1cccc2c1C(=O)c1c(O)c3c(c(O)c1C2=O)C[C@@](O)(C(=O)CO)C[C@@H]3O[C@H]1C[C@H](N)[C@H](O)[C@H](C)O1 [Doxorubicin, reference compound]	–	–	0.054 ± 0.005	–	–	–	–	–	–	0.024 ± 0.006	2.25	0.018 ± 0.003	3.00	0.016 ± 0.005	3.38
